Measured values published in PubChem BioAssay (NCI).
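Method: 48-hour compound exposure of cells in 96-well plates, five concentrations, linear interpolation of endpoints. Definition used: TGI = concentration required for complete inhibition of growth.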

Legend:
Test in all cases: NCI-60 cell line screen, 48 h
[1] = test system: SN12C renal
[2] = test system: COLO 205 colon
[3] = test system: KM12 colon
[4] = test system: DU-145 prostate
[5] = test system: SNB-75 CNS
[6] = test system: SNB-19 CNS
[7] = test system: SK-MEL-28 melanoma
[8] = test system: TK-10 renal
[9] = test system: UACC-257 melanoma
[10] = test system: A498 renal
[11] = test system: HCC-2998 colon
[12] = test system: NCI-H226 lung
[13] = test system: SK-MEL-5 melanoma
[14] = test system: OVCAR-4 ovarian
[15] = test system: M14 melanoma
[16] = test system: UO-31 renal
[17] = test system: HCT-116 colon
[18] = test system: MCF7 breast
[19] = test system: MALME-3M melanoma
[20] = test system: EKVX NSCLC
[21] = test system: RXF 393 renal
[22] = test system: OVCAR-5 ovarian
[23] = test system: MDA-N
[24] = test system: SK-MEL-2 melanoma
[25] = test system: IGROV1 ovarian
[26] = test system: ACHN renal
[27] = test system: OVCAR-3 ovarian
[28] = test system: OVCAR-8 ovarian
[29] = test system: 786-0 renal
[30] = test system: BT-549 breast
[31] = test system: LOX IMVI melanoma
[32] = test system: SW-620 colon
[33] = test system: HOP-62 NSCLC
[34] = test system: MDA-MB-231 breast
[35] = test system: SK-OV-3 ovarian
[36] = test system: CAKI-1 renal
[37] = test system: NCI-H460 lung
[38] = test system: HCT-15 colon
[39] = test system: MDA-MB-435
[40] = test system: UACC-62 melanoma
[41] = test system: K-562 leukemia
[42] = test system: T-47D breast
[43] = test system: CCRF-CEM leukemia
[44] = test system: SF-268 CNS
[45] = test system: A549 NSCLC
[46] = test system: HOP-92 NSCLC
[47] = test system: PC-3 prostate
[48] = test system: NCI/ADR-RES ovarian
[49] = test system: MOLT-4 leukemia
[50] = test system: SF-295 CNS
[51] = test system: HL-60(TB) leukemia
[52] = test system: RPMI-8226 leukemia
[53] = test system: NCI-H23 lung
[54] = test system: HT29 colon
[55] = test system: U251 CNS
[56] = test system: HS 578T breast
[57] = test system: NCI-H522 lung
[58] = test system: SF-539 CNS

O=P1(C(O)/C=C/c2ccccc2)N(Cc2ccccc2)[C@@H]2CCCC[C@H]2N1Cc1ccccc1 (stereo not given in full)
TGI [1]: 11.6 µM | TGI [2]: 6.26 µM | TGI [3]: 19.5 µM | TGI [4]: 45.3 µM | TGI [5]: 54.5 µM | TGI [6]: 20.6 µM | TGI [7]: 28.1 µM | TGI [8]: 28.5 µM | TGI [9]: 16.2 µM | TGI [10]: 11.2 µM | TGI [11]: 14.4 µM | TGI [12]: 17.2 µM | TGI [13]: 16.4 µM | TGI [14]: 26.5 µM | TGI [15]: 19.8 µM | TGI [16]: 17.7 µM | TGI [17]: 14 µM | TGI [18]: 15.1 µM | TGI [19]: 8.45 µM | TGI [20]: 35.9 µM | TGI [21]: 23.5 µM | TGI [22]: 31.5 µM | TGI [23]: 18.2 µM | TGI [24]: 6.17 µM | TGI [25]: 14.4 µM | TGI [26]: 37.1 µM | TGI [27]: 27.8 µM | TGI [28]: 13.2 µM | TGI [29]: 18.8 µM | TGI [30]: 34.2 µM | TGI [31]: 13.7 µM | TGI [32]: 33.3 µM | TGI [33]: 34.6 µM | TGI [34]: 26.2 µM | TGI [35]: > 100 µM | TGI [36]: 65.5 µM | TGI [37]: 14.7 µM | TGI [38]: 43.8 µM | TGI [39]: 15.1 µM | TGI [40]: 21.2 µM | TGI [41]: 16.4 µM | TGI [42]: 35.7 µM | TGI [43]: > 100 µM | TGI [44]: 14.2 µM | TGI [45]: 43 µM | TGI [46]: 7.48 µM | TGI [47]: 11.3 µM | TGI [48]: 51.6 µM | TGI [49]: 9.77 µM | TGI [50]: 26.8 µM | TGI [51]: 5.88 µM | TGI [52]: 4.59 µM | TGI [53]: 21.5 µM | TGI [54]: 21.5 µM | TGI [55]: 16.5 µM | TGI [56]: 10.6 µM | TGI [57]: 12.1 µM

Cc1ccc2c(c1C)CC1(Cc3c(C)ccc(C)c3C1=O)C2=O (stereo not given)
TGI [1]: > 100 µM | TGI [2]: > 100 µM | TGI [3]: > 100 µM | TGI [4]: > 100 µM | TGI [5]: > 100 µM | TGI [6]: > 100 µM | TGI [7]: > 100 µM | TGI [8]: > 100 µM | TGI [9]: > 100 µM | TGI [10]: > 100 µM | TGI [11]: > 100 µM | TGI [12]: > 100 µM | TGI [13]: > 100 µM | TGI [14]: > 100 µM | TGI [15]: > 100 µM | TGI [16]: > 100 µM | TGI [58]: > 100 µM | TGI [17]: > 100 µM | TGI [18]: > 100 µM | TGI [19]: > 100 µM | TGI [20]: > 100 µM | TGI [21]: > 100 µM | TGI [22]: > 100 µM | TGI [23]: > 100 µM | TGI [25]: > 100 µM | TGI [26]: > 100 µM | TGI [28]: > 100 µM | TGI [29]: > 100 µM | TGI [30]: > 100 µM | TGI [32]: > 100 µM | TGI [34]: > 100 µM | TGI [35]: > 100 µM | TGI [36]: > 100 µM | TGI [37]: > 100 µM | TGI [38]: > 100 µM | TGI [39]: > 100 µM | TGI [40]: > 100 µM | TGI [41]: > 100 µM | TGI [42]: > 100 µM | TGI [43]: > 100 µM | TGI [44]: > 100 µM | TGI [45]: > 100 µM | TGI [46]: > 100 µM | TGI [48]: > 100 µM | TGI [49]: > 100 µM | TGI [50]: > 100 µM | TGI [51]: > 100 µM | TGI [52]: > 100 µM | TGI [53]: > 100 µM | TGI [54]: > 100 µM | TGI [55]: > 100 µM | TGI [56]: > 100 µM | TGI [57]: > 100 µM
